In article PMC10740499, “Benzodioxane–Benzamides as FtsZ Inhibitors: Effects of Linker’s Functionalization on Gram-Positive Antimicrobial Activity” (Antibiotics, 2023):
In brackets after ≈: the same amount, converted by molar mass. Several values for one entry are separate records, joined by “and”; a condition that tells them apart may be missing. Equal entries are not always repeated. Where two headings read alike, the source gives them in different places.

Columns and labels:
MDRSA 11.7 = assay: MIC, broth dilution, MDRSA 11.7; format: cell-based, Staphylococcus aureus; details: MDRSA 11.7 clinical isolate
Source text: (§1) As described in our previous work, we evaluated all the compounds mentioned above on different S. aureus strains. We tested on both methicillin-sensitive S. aureus (MSSA, ATCC29213) and two clinical isolates of S. aureus showing multi-drug resistance (MDRSA). […] We analyzed the MICs and, if the antibacterial activity was promising, we also determined the percentage of cytotoxicity using the MTT assay on human MRC-5 cells and reported it as TD90. The results of antibacterial properties of all of the synthesized derivatives are shown in Table 1, and they are compared with their reference compounds FZ14, FZ88, and FZ100.
(§2) The detailed protocol is identical to what was previously reported. Briefly, the antimicrobial testing of compounds followed the Clinical and Laboratory Standards Institute and European Committee for Antimicrobial Susceptibility Testing guidelines. A bacterial suspension equivalent to 0.5 McFarland turbidity standard was diluted in cation-adjusted Mueller Hinton broth to prepare a fresh bacterial culture of 10^5 CFU/mL. Compounds dissolved in DMSO were combined with the bacteria and incubated for 20 h at 35 °C. MIC values were determined visually as the lowest compound dilution with no turbidity. MICs were determined against methicillin-sensitive and methicillin-resistant S. aureus strains (11.7 and 12.1). Every assay was performed in triplicate, and for each series of experiments, both positive (tetracycline) and negative (no compounds) controls were included.

MDRSA 12.1 = assay: MIC, broth dilution, MDRSA 12.1; format: cell-based, Staphylococcus aureus; details: MDRSA 12.1 clinical isolate
Source text: as §1, §2

[1] = tested on: B. subtilis strain WM5126; assay: MIC from broth microdilution; format: cell-based, Bacillus subtilis
Source text: (§3) We further evaluated the most promising compounds on B. subtilis, a model Gram-positive species used previously in evaluating other benzamides, including by our research group. The B. subtilis strain WM5126 expresses a xylose-inducible GFP-tagged ZapA protein. […] We first tested the effects of the compounds on colony viability on solid medium (Figure 4). […] MIC values from microdilution experiments, shown in the right column in Figure 4, largely mirrored the spot viability data.
(§4) The B. subtilis strain used was WM5126 (JH642 amyE::Pxyl-gfp-zapA). For spot viability assays on plates, compounds were diluted from DMSO stocks into molten LB agar and mixed well before solidifying. To assess viability, cells were grown until the early log phase, and then 10-fold serial dilutions of the culture in LB were spotted onto LB agar plates containing the indicated final concentration of the compounds. The plates were incubated overnight at 30 °C and photographed. Microdilution assays to obtain MICs were performed essentially as described for E. coli.

[2] = tested on: methicillin-sensitive S. aureus (MSSA, ATCC29213); assay: MIC, broth dilution, MSSA ATCC 29213; format: cell-based, Staphylococcus aureus
Source text: as §1
Gram-positive methicillin-sensitive Staphylococcus aureus (MSSA, ATCC 29213) was grown in Luria–Bertani broth (LB), as already described in our papers.
as §2

[3] = tested on: B. subtilis strain WM5126; assay: Spot viability assay on solid medium; format: cell-based, Bacillus subtilis; details: for concentration able to kill on solid medium: spot dilutions on LB agar; for growth on solid medium at 6 µg/mL: 6 µg/mL in LB agar; for colony viability on solid medium, in words: more potent compounds, Figure 4A
Source text: as §3, §4

[4] = tested on: FtsZ rings in live B. subtilis WM 5126 cells expressing GFP-ZapA; assay: GFP-ZapA fluorescence microscopy of FtsZ assembly; format: cell-based, Bacillus subtilis; details: 0.3 µg/mL (0.8 µM), 90 min
Protocol: To test if the differential effects of FZ116 and FZ117 enantiomers could be detected as FtsZ assembly changes in B. subtilis cells, we visualized GFP-ZapA patterns after growth in inhibitory concentrations of FZ116 and FZ117 (0.3 µg/mL or 0.8 µM). Cells grown with no added compound grew as typical single bacilli and short chains, with well- defined Z rings clearly visible (Figure 5, left panel, single yellow arrows). […] This conversion of FtsZ rings into a speckle pattern was observed previously, both with FZ100 [14] and with the original benzamide derivatives.
For fluorescence microscopy, overnight cultures of WM5126 were grown at 33 °C (after 1:200 dilution overnight and addition of 0.1% xylose to induce expression of GFP-ZapA) for ~2 h until reaching an OD600 of ~0.2 and then treated with no drug or with compounds FZ116 or FZ117 diluted in water to a final concentration of 0.3 µg/mL (0.8 µM) from stock solutions of 30 mg/mL in DMSO. After the addition of the compounds, the cultures were grown for 90 min while shaking at 33 °C prior to spotting on a thin layer of 1% agarose in phosphate-buffered saline. Cells were imaged with an Olympus BX100 fitted with a 100 × Plan Apochromat objective (N.A. 1.4) and a GFP filter set (Chroma). Images were acquired with CellSens Dimension version 2 software (Evident Corporation, Tokyo, Japan).

E. coli FtsZ = tested on: E. coli FtsZ; design: method as in PMID 37634788; details: in words; cited from earlier work
human MRC-5 cells [5] = assay: MTT cytotoxicity assay; format: cell-based; details: MRC-5, MTT assay
Source text: as §1
Normal human lung fibroblasts (MRC-5) were grown in Dulbecco’s Modified Eagle’s medium (DMEM) supplemented with 10% heat-inactivated fetal calf serum (FCS), 100 U/mL penicillin, and […] streptomycin.
Compounds showing promising antibacterial activity were serially diluted in DMEM and tested for cytotoxicity on MRC-5 cells using the MTT assay (Sigma, St Louis, MO, USA), following the same protocol we previously reported.

B. subtilis = tested on: B. subtilis; design: method as in PMID 33920895; details: cited from earlier work
human MRC-5 cells [6] = tested on: human MRC-5 cells; design: method as in PMID 33920895; details: in words; cited from earlier work
[7] = tested on: methicillin-sensitive Staphylococcus aureus (MSSA); details: cited from earlier work
[8] = tested on: methicillin-resistant S. aureus (MRSA); details: cited from earlier work
[9] = Bacillus subtilis, value in brackets
[10] = Staphylococcus aureus, 20 h, MSSA ATCC 29213, 20 h at 35 °C, read-out: MIC
[11] = Staphylococcus aureus, read-out: MIC vs S. aureus
[12] = MSSA ATCC 29213, 20 h at 35 °C, read-out: MIC
[13] = as repeated in Table S1 beside the docking ranges, read-out: MIC vs S. aureus

SMILES	MIC (MDRSA 11.7; Staphylococcus aureus)	MIC (MDRSA 12.1; Staphylococcus aureus)	MIC ([1]; Bacillus subtilis)	MIC [1, 9]	MIC [2, 10]	MIC [2, 11]	TD90 (human MRC-5 cells [5])	further results
C[C@H](Oc1ccc(F)c(C(N)=O)c1F)[C@H]1COc2ccccc2O1 (relative stereo) [FZ104, 3-[1-(1,4-benzodioxan-2yl)ethyl-1-oxy]-2,6-difluorobenzamide]	23.9 µM (≈ 8.01 µg/mL)	23.9 µM (≈ 8.01 µg/mL)	3.75 µg/mL	11 µM	23.9 µM (≈ 8.01 µg/mL)	23.9 µM (≈ 8.01 µg/mL)		concentration able to kill on solid medium ([3]; overnight 30 °C): 6 µg/mL; concentration able to kill on solid medium ([3]; value in brackets): ~ 20 µM
NC(=O)c1c(F)ccc(OC[C@H](O)[C@H]2COc3ccccc3O2)c1F (relative stereo) [FZ112]	364 µM (≈ 128 µg/mL)	364 µM (≈ 128 µg/mL)	7.5 µg/mL	21 µM	364 µM (≈ 128 µg/mL)	364 µM (≈ 128 µg/mL)		growth on solid medium at 6 µg/mL [3]: still permitted growth
NC(=O)c1c(F)ccc(OC[C@@H](O)[C@H]2COc3ccccc3O2)c1F (relative stereo) [FZ113]	364 µM (≈ 128 µg/mL)	364 µM (≈ 128 µg/mL)	15 µg/mL	42 µM	364 µM (≈ 128 µg/mL)	364 µM (≈ 128 µg/mL)		growth on solid medium at 6 µg/mL [3]: still permitted growth
NC(=O)c1c(F)ccc(OC[C@H](O)[C@H]2COc3cc4c(cc3O2)CCCC4)c1F (relative stereo) [FZ116]	4.9 µM (≈ 1.99 µg/mL)	4.9 µM (≈ 1.99 µg/mL)	< 0.24 µg/mL	< 0.6 µM	4.9 µM (≈ 1.99 µg/mL)	4.9 µM (≈ 1.99 µg/mL)	468.7 µM	FtsZ ring / GFP-ZapA pattern [4]: largely disrupted; in vitro inhibition of E. coli FtsZ (E. coli FtsZ): very strong; colony viability on solid medium, in words [3]: killed B. subtilis at the lowest doses
NC(=O)c1c(F)ccc(OC[C@@H](O)[C@H]2COc3cc4c(cc3O2)CCCC4)c1F (relative stereo) [FZ117]	19.7 µM (≈ 7.99 µg/mL)	19.7 µM (≈ 7.99 µg/mL)	0.94 µg/mL	2.7 µM	19.7 µM (≈ 7.99 µg/mL)	19.7 µM (≈ 7.99 µg/mL)	468.7 µM	FtsZ ring / GFP-ZapA pattern [4]: mixture of FtsZ speckles and Z rings; colony viability on solid medium, in words [3]: less effective
NC(=O)c1c(F)ccc(OCC2COc3ccccc3O2)c1F (stereo not shown) [FZ14, reference compound]	15.6 µM (≈ 5.01 µg/mL)	15.6 µM (≈ 5.01 µg/mL)			15.6 µM (≈ 5.01 µg/mL)		49.8 µM	
NC(=O)c1c(F)ccc(OCCC2COc3ccccc3O2)c1F (stereo not shown) [FZ88, reference compound]	14.9 µM (≈ 5 µg/mL)	14.9 µM (≈ 5 µg/mL)			14.9 µM (≈ 5 µg/mL)		226 µM	
NC(=O)c1c(F)ccc(OCCC2COc3cc4ccccc4cc3O2)c1F (stereo not shown) [FZ95]								MIC (B. subtilis): under 0.1 μg/mL; cytotoxicity towards human MRC-5 cells (human MRC-5 cells [6]): low to no cytotoxicity; MIC [7]: 0.25 μg/mL and 0.6 μM; MIC [8]: 0.25 μg/mL and 0.6 μM
CC(COc1ccc(F)c(C(N)=O)c1F)C1COc2ccccc2O1 (stereo not shown) [FZ97, 3-(2-(1,4-benzodioxan-2-yl)-1-propyloxy)-2,6-difluorobenzamide]								MIC (MDRSA 11.7): 366.4 µM (≈ 128 µg/mL); MIC (MDRSA 12.1): 366.4 µM (≈ 128 µg/mL); MIC [2, 12]: 366.4 µM (≈ 128 µg/mL); MIC [2, 13]: 366.4 µM (≈ 128 µg/mL)
CC(COc1ccc(F)c(C(N)=O)c1F)C1COc2ccccc2O1 (stereo not shown) [FZ98, 3-(2-(1,4-benzodioxan-2-yl)-1-propyloxy)-2,6-difluorobenzamide]			15 µg/mL	42 µM				MIC (MDRSA 11.7): 91.6 µM (≈ 32 µg/mL); MIC (MDRSA 12.1): 91.6 µM (≈ 32 µg/mL); MIC [2, 12]: 91.6 µM (≈ 32 µg/mL); MIC [2, 13]: 91.6 µM (≈ 32 µg/mL); growth on solid medium at 6 µg/mL [3]: still permitted growth
NC(=O)c1c(F)ccc(OCCC2COc3cc4c(cc3O2)CCCC4)c1F (stereo not shown) [FZ100]	0.25 µM (≈ 0.0973 µg/mL)	0.25 µM (≈ 0.0973 µg/mL)			0.25 µM (≈ 0.0973 µg/mL)		2054 µM	MIC (B. subtilis): under 0.1 μg/mL; cytotoxicity towards human MRC-5 cells (human MRC-5 cells [6]): low to no cytotoxicity; MIC [7]: 0.1 μg/mL and 0.25 μM; MIC [8]: 0.1 μg/mL and 0.25 μM
CC(Oc1ccc(F)c(C(N)=O)c1F)C1COc2ccccc2O1 (stereo not shown) [FZ105, 3-[1-(1,4-benzodioxan-2yl)ethyl-1-oxy]-2,6-difluorobenzamide]	191 µM (≈ 64 µg/mL)	191 µM (≈ 64 µg/mL)			191 µM (≈ 64 µg/mL)	191 µM (≈ 64 µg/mL)		
CC(COc1ccc(F)c(C(N)=O)c1F)C1COc2cc3c(cc2O1)CCCC3 (stereo not drawn) [FZ118, Erythro 3-(2-(5,6,7,8-Tetrahydro-1,4-naphthodioxan-2-yl)prop-1-yloxy)-2,6-difluorobenzamide]	9.9 µM (≈ 3.99 µg/mL)	9.9 µM (≈ 3.99 µg/mL)	< 0.24 µg/mL	< 0.6 µM	9.9 µM (≈ 3.99 µg/mL)	9.9 µM (≈ 3.99 µg/mL)	471.0 µM	colony viability on solid medium, in words [3]: less effective
CC(COc1ccc(F)c(C(N)=O)c1F)C1COc2cc3c(cc2O1)CCCC3 (stereo not drawn) [FZ119, Threo 3-(2-(5,6,7,8-Tetrahydro-1,4-naphthodioxan-2-yl)prop-1-yloxy)-2,6-difluorobenzamide]							247.9 µM	MIC (MDRSA 11.7): 9.9 µM (≈ 3.99 µg/mL); MIC (MDRSA 12.1): 9.9 µM (≈ 3.99 µg/mL); MIC (microdilution) [1]: < 0.24 µg/mL; MIC ([1]; value in brackets): < 0.6 µM; MIC [2, 12]: 9.9 µM (≈ 3.99 µg/mL); MIC [2, 13]: 9.9 µM (≈ 3.99 µg/mL); colony viability on solid medium, in words [3]: killed B. subtilis at the lowest doses
NC(=O)c1c(F)ccc(OCc2nc3cc(Cl)cnc3s2)c1F [PC190723]								MIC [7]: 1 µg/mL (≈ 2.81 µM); MIC [8]: 1 µg/mL (≈ 2.81 µM)
